Test results reported in patent publication US5260286A, “2-piperidinecarboxylic acid derivatives useful as NMDA receptor antagonists” (Japan Tobacco, Inc., priority 1992, dated 1993).
Like-named read-outs stand apart in the source and are kept apart here.

Tests used:
[1] = system: NMDA-Induced Lethality; test: In vivo protection in the mouse against NMDA-induced lethality; set-up: species or system male Swiss-Webster mice; details: ip; for ED50: Mus musculus, read-out: PD50
Method: (§1) According to the method described by Ferkany et al. (1988), the test compounds were administered ip to four male Swiss-Webster mice (26-34 g) each, following 30 minutes later, 200 mg/kg of NMDA was administered to the mice each. […] Those compounds that protected three or more of the mice at any of the doses were evaluated further by determining the ED50 values using three or more doses with the eight mice per dose. The ED50 was estimated by the method of Litchfield and Wilcoxin (1949). Water-soluble compounds were dissolved in distilled water and administered in a volume of 10 mL/kg. Water-insoluble compounds were suspended in an aqueous solution of 0.5% methyl cellulose and administered in a volume of 20 mL/kg.

[2] = target: NMDA receptor; test: In vitro binding assay, inhibition of [^3 H]CGS-19755 binding at the NMDA receptor site (semipurified synaptic membranes from rat forebrain); set-up: species or system Adult male Sprague-Dawley rats; details: 10 nM [^3 H]CGS-19755, 15 minutes at 4° C., 50 mM Tris-citrate pH 7.1; read-out: Ki [^3 H]CGS19755
Method: The compounds of the invention were tested for their ability to inhibit [^3 H]CGS-19755 binding. Semipurified synaptic membranes were prepared according to the method of Bristow et al. (1986) with minor modifications. Adult male Sprague-Dawley rats were decapitated, and the forebrains were removed, weighed and homogenized in 20 volumes of 0.32M sucrose. The homogenate was centrifuged at 27,000×G for 15 minutes. The pellet was resuspended in 20 volumes of distilled water followed by centrifugation at 8000×G for […]. Both the supernatant and the buffy coat layer, removed with 5 mM Tris-Cl (2 mL), pH 7.8, were pooled and centrifuged at 27,000×G for 15 minutes. The supernatant was removed and the pellet was covered with a small amount of 5 mM Tris-HCl and stored at -20° C. for least 18 hours. Membranes were then washed four times in 50 mM Tris-citrate, pH 7.1, and finally resuspended in the same buffer. This suspension was used for the binding assay immediately or frozen for subsequent use.
Aliquots of membranes (800 μl) were incubated with 10 nM [^3 H]CGS-19755 (100 μl) and varying concentrations of the test compounds (100 μl) for 15 minutes at 4° C. Then a filtration assay was used. The samples were filtered over glass fiber filters using a Brandel Cell Harvester. […]
Ki values were calculated from the equation: [formula]

[3] = system: NMDA recognition site; details: Lehman et al., 1988; Murphy et al., 1987; cited from earlier work
[4] = Lethality of NMDA in mice; set-up: species or system male Swiss-Webster mice; details: mouse, in vivo
Method: as §1

[5] = 30 minutes before 200 mg/kg NMDA, Litchfield and Wilcoxin

| Compound | ED50 ([1]; 30 minutes before 200 mg/kg NMDA, eight mice per dose, Litchfield and Wilcoxin) | Confidence Limits (of PD50) [1, 5] | Slope [1, 5] | Ki [2] | antagonists at the NMDA recognition site [3] | ED50 [1] | mortality ([4]; 200 mg/kg NMDA, read-out: mice died at 200 mg/kg NMDA) | LD50 ([4]; mice) |
| --- | --- | --- | --- | --- | --- | --- | --- | --- |
| O=C(O)[C@H]1C[C@@H](CP(=O)(O)O)CCN1 (relative stereo) [CGS-19755, cis-4-(phosphonomethyl)-2-piperidinecarboxylicacid] | 2 mg/kg | 1.2-3.6 | 2.46 | 112 nM | high-affinity antagonists |  |  |  |
| O=C(O)C1C/C(=C/P(=O)(O)O)CCN1 (centres unmarked) [E-4-(phosphonomethylidene)-2-piperidinecarboxylic acid] |  | 0.5-2.2 | 1.96 | 590 nM |  | 1.1 mg/kg |  |  |
| CN[C@H](CC(=O)O)C(=O)O [NMDA, N-methyl-D-aspartate] |  |  |  |  |  |  | ~90% | 164 mg/kg |
